Reference: patent US8394848B2, “Compounds that modulate intracellular calcium” (Calcimedica, Inc., priority 2008, dated 2013)

test system: JR251 or RBL cells; test: Store-operated calcium entry, either JR251 or RBL cells, or both; assay type: cell-based
Method: The day prior to performing the assay, RBL-2H3 cells are plated in 50 μL of complete medium in a 384 well plate. Cells are grown at 37° C./6% CO2 overnight and grow to 50-60% confluence by the next day. On the assay day, 1.5 μM Fluo-4-AM dye (Invitrogen) in complete medium is added and incubated for 1 hour at RT. Cells are washed twice in Ca^2+-free HBSS buffer and 35 μL Ca^2+-free HBSS buffer is added to each well. 10 μL of a test compound prepared in a Ca^2+-free HBSS solution at 4.5× of the desired concentration is added to a well and incubated for 5 minutes at RT. 10 μL of thapsigargin prepared in a Ca^2+-free HBSS solution at 5.5× of the desired concentration (5.5 uM) is added to each well and incubated for an additional 25 minutes. The initial baseline fluorescence signal is measured with a FLIPR^384 (Molecular Devices) plate reader. 5 μL of 12× calcium in HBSS (12 mM) is added and changes in cellular fluorescence are measured with the FLIPR^384 plate reader. In each well, the change in the fluorescent signal as a function of time due to calcium entry into the cell is determined by calculating the difference between the fluorescent signal measured 7 seconds after calcium addition and the initial baseline fluorescence signal at time zero (t=0). This parameter is designated Upslope. The IC50 value is calculated as the concentration at which 50% of the Upslope is inhibited.

IC50, < 10 µM:
Cc1cccc2nc(C(=O)Nc3scc(-c4ccc(Cl)cc4)c3C(=O)O)c(F)n12 [4-(4-chlorophenyl)-2-(3-fluoro-5-methylimidazo[1,2-a]pyridine-2-carboxamido)thiophene-3-carboxylic acid]
O=C(Nc1scc(-c2ccc(Cl)cc2)c1C(=O)O)OCc1ccccc1 [2-(benzyloxycarbonylamino)-4-(4-chlorophenyl)thiophene-3-carboxylic acid]
O=C(Nc1scc(-c2ccc(Br)cc2)c1C(=O)O)c1nc2ccccc2o1 [2-(benzo[d]oxazole-2-carboxamido)-4-(4-bromophenyl)thiophene-3-carboxylic acid]
Cc1ccc(-c2csc(NC(=O)c3ccc4occc4c3)c2C(=O)O)c(F)c1F [2-(benzofuran-5-carboxamido)-4-(2,3-difluoro-4-methylphenyl)thiophene-3-carboxylic acid]
CC(CC(=O)Nc1scc(-c2ccc(Cl)cc2)c1C(=O)O)c1ccccc1 (centres unmarked) [4-(4-chlorophenyl)-2-(3-phenylbutanamido)thiophene-3-carboxylic acid]
O=C(Nc1scc(-c2ccc(Br)cc2)c1C(=O)O)c1cnc2ccccc2n1 [4-(4-bromophenyl)-2-(quinoxaline-2-carboxamido)thiophene-3-carboxylic acid]
Cc1ccsc1C(=O)Nc1scc(-c2ccc(Br)cc2)c1C(=O)O [4-(4-bromophenyl)-2-(3-methylthiophene-2-carboxamido)thiophene-3-carboxylic acid]
CC(=O)Oc1cccc2cc(-c3csc(NC(=O)c4cc5ccccc5o4)c3C(=O)O)oc12 [4-(7-acetoxybenzofuran-2-yl)-2-(benzofuran-2-carboxamido)thiophene-3-carboxylic acid]
Cc1ccsc1C(=O)Nc1scc(-c2cccc(Cl)c2)c1C(=O)O [4-(3-chlorophenyl)-2-(3-methylthiophene-2-carboxamido)thiophene-3-carboxylic acid]
O=C(Nc1scc(-c2ccc(Cl)cc2)c1C(=O)O)c1cc2ccccn2n1 [4-(4-chlorophenyl)-2-(pyrazolo[1,5-a]pyridine-2-carboxamido)thiophene-3-carboxylic acid]
O=C(O)c1c(-c2ccc(Cl)cc2)csc1NC(=O)C1Cc2ccccc2N1 (centres unmarked) [4-(4-chlorophenyl)-2-(indoline-2-carboxamido)thiophene-3-carboxylic acid]
Cc1ccc(-c2csc(NC(=O)c3nc4cc(Cl)ccc4o3)c2C(=O)O)c(F)c1F [2-(5-chlorobenzo[d]oxazole-2-carboxamido)-4-(2,3-difluoro-4-methylphenyl)thiophene-3-carboxylic acid]
O=C(Nc1scc(-c2ccc(Cl)cc2)c1C(=O)O)c1nc2cc(F)ccc2o1 [4-(4-chlorophenyl)-2-(5-fluorobenzo[d]oxazole-2-carboxamido)thiophene-3-carboxylic acid]
O=C(O)c1c(-c2ccc(Cl)cc2)csc1NC(=O)C1Cc2c(F)cccc2S1 (centres unmarked) [4-(4-chlorophenyl)-2-(4-fluoro-2,3-dihydrobenzo[b]thiophene-2-carboxamido)thiophene-3-carboxylic acid]
O=C(O)c1c(-c2ccc(Cl)cc2)csc1NC(=O)[C@H]1CCc2ccccc2C1 [(S)-4-(4-chlorophenyl)-2-(1,2,3,4-tetrahydronaphthalene-2-carboxamido)thiophene-3-carboxylic acid]
Cn1cnc(C(=O)Nc2scc(-c3ccc(Cl)cc3)c2C(=O)O)c1 [4-(4-chlorophenyl)-2-(1-methyl-1H-imidazole-4-carboxamido)thiophene-3-carboxylic acid]
O=C(Nc1scc(-c2ccc(Cl)cc2)c1C(=O)O)c1nc2cc(Br)ccc2o1 [2-(5-bromobenzo[d]oxazole-2-carboxamido)-4-(4-chlorophenyl)thiophene-3-carboxylic acid]
Cc1ccc(-c2csc(NC(=O)c3ccc(-c4cccs4)s3)c2C(=O)O)cc1 [2-(2,2′-bithiophene-5-carboxamido)-4-p-tolylthiophene-3-carboxylic acid]
O=C(Nc1scc(-c2ccc(Cl)cc2)c1C(=O)O)c1ncc(C(F)(F)F)cn1 [4-(4-chlorophenyl)-2-(5-(trifluoromethyl)pyrimidine-2-carboxamido)thiophene-3-carboxylic acid]
O=C(Nc1scc(-c2ccc3c(c2)CCO3)c1C(=O)O)c1nc2ccccc2o1 [2-(benzo[d]oxazole-2-carboxamido)-4-(2,3-dihydrobenzofuran-5-yl)thiophene-3-carboxylic acid]
COc1cc(F)c(-c2csc(NC(=O)c3cc4ccccc4o3)c2C(=O)O)cc1F [2-(benzofuran-2-carboxamido)-4-(2,5-difluoro-4-methoxyphenyl)thiophene-3-carboxylic acid]
Cc1cnc(C(=O)Nc2scc(-c3ccc(Cl)cc3)c2C(=O)O)cn1 [4-(4-chlorophenyl)-2-(5-methylpyrazine-2-carboxamido)thiophene-3-carboxylic acid]
O=C(Nc1scc(-c2ccc(Oc3ccccc3)cc2)c1C(=O)O)c1nc2ccccc2o1 [2-(benzo[d]oxazole-2-carboxamido)-4-(4-phenoxyphenyl)thiophene-3-carboxylic acid]
O=C(CCc1ccccc1)Nc1scc(-c2ccc(Cl)cc2F)c1C(=O)O [4-(4-chloro-2-fluorophenyl)-2-(3-phenylpropanamido)thiophene-3-carboxylic acid]
O=C(Nc1scc(-c2ccc(Cl)cc2)c1C(=O)O)c1ccc2ncoc2c1 [2-(benzo[d]oxazole-6-carboxamido)-4-(4-chlorophenyl)thiophene-3-carboxylic acid]
Cc1ccsc1C(=O)Nc1scc(-c2ccc(C(F)(F)F)cc2)c1C(=O)O [2-(3-methylthiophene-2-carboxamido)-4-(4-(trifluoromethyl)phenyl)thiophene-3-carboxylic acid]
O=C(Nc1scc(-c2ccc(Cl)cc2)c1C(=O)O)c1cc2c(Cl)cc(Cl)cc2[nH]1 [4-(4-chlorophenyl)-2-(4,6-dichloro-1H-indole-2-carboxamido)thiophene-3-carboxylic acid]
O=C(O)c1c(-c2ccc(Br)cc2)csc1NC(=O)C(F)Cc1ccccc1Cl (centres unmarked) [4-(4-bromophenyl)-2-(3-(2-chlorophenyl)-2-fluoropropanamido)thiophene-3-carboxylic acid]
CC(C)(CC(=O)Nc1scc(-c2ccc(Cl)cc2)c1C(=O)O)c1ccccc1 [4-(4-chlorophenyl)-2-(3-methyl-3-phenylbutanamido)thiophene-3-carboxylic acid]
O=C(Cc1cc2ccccc2o1)Nc1scc(-c2ccc(Br)cc2)c1C(=O)O [2-(2-(benzofuran-2-yl)acetamido)-4-(4-bromophenyl)thiophene-3-carboxylic acid]
O=C(Nc1scc(-c2ccc(Cl)cc2)c1C(=O)O)c1ccc(-c2cccs2)s1 [2-(2,2′-bithiophene-5-carboxamido)-4-(4-chlorophenyl)thiophene-3-carboxylic acid]
COc1cc(C)c(-c2csc(NC(=O)c3cc4ccccc4o3)c2C(=O)O)c(C)c1 [2-(benzofuran-2-carboxamido)-4-(4-methoxy-2,6-dimethylphenyl)thiophene-3-carboxylic acid]
